According to PubChem BioAssay (NCI):
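Growth conditions: 96-well plates. Treatment: test compound, 48 hours, 5 concentrations. Analysis: linear interpolation between bracketing concentrations; unreached endpoints set to highest concentration. Definition used: TGI = concentration required for complete inhibition of growth.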

Assays:
Assay in all cases: NCI anticancer screen, dose series, 48 h
SN12C renal = test system: SN12C renal
HCC-2998 colon = test system: HCC-2998 colon
MDA-N = test system: MDA-N
M14 melanoma = test system: M14 melanoma
SF-268 CNS = test system: SF-268 CNS
UACC-62 melanoma = test system: UACC-62 melanoma
OVCAR-8 ovarian = test system: OVCAR-8 ovarian
HCT-15 colon = test system: HCT-15 colon
TK-10 renal = test system: TK-10 renal
NCI-H460 lung = test system: NCI-H460 lung
T-47D breast = test system: T-47D breast
UO-31 renal = test system: UO-31 renal
786-0 renal = test system: 786-0 renal
SF-295 CNS = test system: SF-295 CNS
A498 renal = test system: A498 renal
MDA-MB-435 = test system: MDA-MB-435
ACHN renal = test system: ACHN renal
SF-539 CNS = test system: SF-539 CNS
CCRF-CEM leukemia = test system: CCRF-CEM leukemia
MCF7 breast = test system: MCF7 breast
HL-60(TB) leukemia = test system: HL-60(TB) leukemia
SK-MEL-28 melanoma = test system: SK-MEL-28 melanoma
EKVX NSCLC = test system: EKVX NSCLC
U251 CNS = test system: U251 CNS
NCI-H23 lung = test system: NCI-H23 lung
MDA-MB-231 breast = test system: MDA-MB-231 breast
COLO 205 colon = test system: COLO 205 colon
A549 NSCLC = test system: A549 NSCLC
SNB-75 CNS = test system: SNB-75 CNS
HOP-62 NSCLC = test system: HOP-62 NSCLC
MOLT-4 leukemia = test system: MOLT-4 leukemia
SR leukemia = test system: SR leukemia
NCI-H226 lung = test system: NCI-H226 lung
RXF 393 renal = test system: RXF 393 renal
CAKI-1 renal = test system: CAKI-1 renal
SNB-19 CNS = test system: SNB-19 CNS
HOP-92 NSCLC = test system: HOP-92 NSCLC
SW-620 colon = test system: SW-620 colon
HCT-116 colon = test system: HCT-116 colon
DU-145 prostate = test system: DU-145 prostate
OVCAR-3 ovarian = test system: OVCAR-3 ovarian
OVCAR-4 ovarian = test system: OVCAR-4 ovarian
PC-3 prostate = test system: PC-3 prostate
SK-OV-3 ovarian = test system: SK-OV-3 ovarian
K-562 leukemia = test system: K-562 leukemia
KM12 colon = test system: KM12 colon
IGROV1 ovarian = test system: IGROV1 ovarian
NCI/ADR-RES ovarian = test system: NCI/ADR-RES ovarian
NCI-H522 lung = test system: NCI-H522 lung
HT29 colon = test system: HT29 colon
RPMI-8226 leukemia = test system: RPMI-8226 leukemia
SK-MEL-2 melanoma = test system: SK-MEL-2 melanoma
HS 578T breast = test system: HS 578T breast
MALME-3M melanoma = test system: MALME-3M melanoma
SK-MEL-5 melanoma = test system: SK-MEL-5 melanoma
OVCAR-5 ovarian = test system: OVCAR-5 ovarian
LOX IMVI melanoma = test system: LOX IMVI melanoma

SMILES: c1csc(-c2nnc(C34CC5CC(CC(C5)C3)C4)o2)c1
- TGI (SN12C renal): > 100 µM
- TGI (HCC-2998 colon): > 100 µM
- TGI (MDA-N): > 100 µM
- TGI (M14 melanoma): > 100 µM
- TGI (SF-268 CNS): > 100 µM
- TGI (UACC-62 melanoma): > 100 µM
- TGI (OVCAR-8 ovarian): 98.4 µM
- TGI (HCT-15 colon): > 100 µM
- TGI (TK-10 renal): > 100 µM
- TGI (NCI-H460 lung): > 100 µM
- TGI (T-47D breast): > 100 µM
- TGI (UO-31 renal): 15.6 µM
- TGI (786-0 renal): 60.2 µM
- TGI (SF-295 CNS): > 100 µM
- TGI (A498 renal): 43.9 µM
- TGI (MDA-MB-435): > 100 µM
- TGI (ACHN renal): > 100 µM
- TGI (SF-539 CNS): 40.1 µM
- TGI (CCRF-CEM leukemia): 47.4 µM
- TGI (MCF7 breast): > 100 µM
- TGI (HL-60(TB) leukemia): 33.5 µM
- TGI (SK-MEL-28 melanoma): > 100 µM
- TGI (EKVX NSCLC): > 100 µM
- TGI (U251 CNS): > 100 µM
- TGI (NCI-H23 lung): > 100 µM
- TGI (MDA-MB-231 breast): 45.7 µM
- TGI (COLO 205 colon): 31.2 µM
- TGI (A549 NSCLC): > 100 µM
- TGI (SNB-75 CNS): 75.8 µM
- TGI (HOP-62 NSCLC): > 100 µM
- TGI (MOLT-4 leukemia): 60 µM
- TGI (SR leukemia): 66.6 µM
- TGI (NCI-H226 lung): > 100 µM
- TGI (RXF 393 renal): 54.7 µM
- TGI (CAKI-1 renal): > 100 µM
- TGI (SNB-19 CNS): > 100 µM
- TGI (HOP-92 NSCLC): 54.8 µM
- TGI (SW-620 colon): > 100 µM
- TGI (HCT-116 colon): > 100 µM
- TGI (DU-145 prostate): > 100 µM
- TGI (OVCAR-3 ovarian): 38.5 µM
- TGI (OVCAR-4 ovarian): > 100 µM
- TGI (PC-3 prostate): > 100 µM
- TGI (SK-OV-3 ovarian): > 100 µM
- TGI (K-562 leukemia): > 100 µM
- TGI (KM12 colon): > 100 µM
- TGI (IGROV1 ovarian): > 100 µM
- TGI (NCI/ADR-RES ovarian): 57 µM
- TGI (NCI-H522 lung): > 100 µM
- TGI (HT29 colon): 36.3 µM
- TGI (RPMI-8226 leukemia): 77.5 µM
- TGI (SK-MEL-2 melanoma): 55.4 µM
- TGI (HS 578T breast): 74.6 µM
- TGI (MALME-3M melanoma): 39.4 µM
- TGI (SK-MEL-5 melanoma): 30.8 µM
- TGI (OVCAR-5 ovarian): > 100 µM
- TGI (LOX IMVI melanoma): 47.1 µM
